The target in one series is T1, human GPR14 receptor (Homo sapiens, UniProt Q9UKP6).
T1 sequence (Q9UKP6 1-389): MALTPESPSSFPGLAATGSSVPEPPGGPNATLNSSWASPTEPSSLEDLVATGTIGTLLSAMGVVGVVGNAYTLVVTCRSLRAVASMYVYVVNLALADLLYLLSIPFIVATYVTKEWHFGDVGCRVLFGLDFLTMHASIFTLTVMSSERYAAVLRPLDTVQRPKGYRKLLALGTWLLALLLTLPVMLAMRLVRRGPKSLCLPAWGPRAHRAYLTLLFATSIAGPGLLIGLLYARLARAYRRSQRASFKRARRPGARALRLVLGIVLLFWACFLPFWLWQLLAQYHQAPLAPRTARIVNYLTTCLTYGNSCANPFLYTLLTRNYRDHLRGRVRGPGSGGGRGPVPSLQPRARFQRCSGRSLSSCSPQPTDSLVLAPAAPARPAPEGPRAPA
Put plainly: cell-based.

Where a name gives a salt, the structure may show the parent alone.

The term melting point denotes the temperature of the solid-liquid transition. In general, IC50 refers to the midpoint of a concentration-inhibition curve.

Method for human GPR14 receptor: GPR14 is a 7-domain transmembrane receptor coupled to Gq. Its activation with a specific ligand causes an increase in Ca^2+ in the cell via the PLC (phospholipase C), IP3 (inositol-1,4,5-triphosphate) DAG (diacylglycerol) route.
The increase in Ca^2+ in the cell is measured using a Fluo4AM permeating probe (monoexcitation, monoemission probe) which binds to the free Ca^2+ and emits at 520 nm. The free probe is nonfluorescent in the absence of Ca^2+.
Experiment Plan • 1) Seeding of the cells on D-1 (day-1) or D-2 • 2) Incorporation/charge (D0) of the probe (1 h) • 3) Addition of the products to the FlipR and measurement • 4) Addition of the ligand to the FlipR and measurement in the presence of the products • 5) Processing and exportation of the data
The cells are cultured in whole medium in a T225 flask. For the experiments, the cells are subcultured in 200 μl of culture medium in transparent-bottomed black 96-well plates at a rate of 60 000 cells/well for a use on D+1 or 40 000 cells/well for a use on D+2.
Fluo-4AM is prepared at 20 mM and then divided into aliquots (50 μl) and stored at −20° C. sheltered from light. A solution of pluronic acid at 200 mg/ml in DMSO is also prepared (it keeps for one week at room temperature sheltered from light).
The cells are charged with the mixture of Fluo-4AM+pluronic acid (aliquots of 50 μl+50 μl of pluronic acid) diluted to 1/100 in the measuring buffer.
After washing the wells with 150 μl of measuring buffer (cf. appendix), the cells are then charged in the following manner: • distribution of 100 μl of measuring buffer into each well • addition of 10 μl of the Fluo-4AM+pluronic acid mixture diluted to 1/100.
The cells are incubated for 1 hour at 37° C. sheltered from light, in an incubator in the presence of 5% CO2.
The cells are then washed 3 times with 150 μl of measuring buffer to remove the excess probe. A volume of 150 μl of buffer is added to each well at the end of washing.
After incubating the plates for 20 minutes at room temperature sheltered from light, they are placed in the FlipR for the fluorescence measurement.
The basic level of incorporation of the Fluo-4 is checked for each plate (sd<10%) before the first injection.
After stabilizing the base signal, the GPR14 inhibitor compounds are injected via the FlipR in a volume of 50 μl using a dilution plate prepared with Biomek 2000 as measuring buffer.
The data are recorded continuously throughout the experiment.
For each plate, the base fluorescence before injection of the compounds is normalized via the “spatial uniformity correction” function of the FlipR. […] In each plate, a series of wells is treated with urotensin alone in the absence of inhibitor compound.
The percentage of inhibition for each concentration of product is calculated as described below: Inhibition(%)=100×(delta Uro II−delta product)/delta Uro II

As for `COC(=O)C1(NC(=O)c2ccc(-c3ncc(C)cc3Cl)c(-c3ccc(Cl)c(OCCCN(C)C)c3)n2)CCCCC1` (as salt: hydrochloride) [Compound 5, methyl 1-{[(3-chloro-2′-{4-chloro-3-[3-(dimethylamino)propoxy]phenyl}-5-methyl-2,3′-bipyridin-6′-yl)carbonyl]amino}cyclohexanecarboxylate], the melting point came out at 152 °C.

Compound `CCOc1ccc(Cl)c(-c2ncc(C(=O)N[C@@H](CC(=O)OC)C(C)(C)C)nc2-c2ccc(Cl)c(OCCCN(C)C)c2)c1` (as salt: hydrochloride) [Compound 24, methyl(3S)-3-({[6-{4-chloro-3-[3-(dimethylamino)propoxy]phenyl}-5-(2-chloro-5-ethoxyphenyl)pyrazin-2-yl]carbonyl}amino)-4,4-dimethylpentanoate] came in with a melting point of 112 °C.

`CNC(=O)C[C@H](NC(=O)c1ccc(-c2ccccc2C)c(-c2ccc(Cl)c(OCCCN(C)C)c2)n1)C(C)(C)C` [Compound 33, 6-{4-chloro-3-[3-(dimethylamino)propoxy]phenyl}-N-{(1S)-2,2-dimethyl-1-[2-(methylamino)-2-oxoethyl]propyl}-5-(2-methylphenyl)pyridine-2-carboxamide]: at human GPR14 receptor, it took 450 nM to reach half-maximal inhibition (IC50).

`CNC(=O)C[C@H](NC(=O)c1ccc(-c2ccccc2C)c(-c2ccc(Cl)c(OCCCN(C)C)c2)n1)C(C)(C)C` (as salt: hydrochloride) [Compound 33, 6-{4-chloro-3-[3-(dimethylamino)propoxy]phenyl}-N-{(1S)-2,2-dimethyl-1-[2-(methylamino)-2-oxoethyl]propyl}-5-(2-methylphenyl)pyridine-2-carboxamide] yielded a melting point of 152 °C.

In turn, `COC(=O)C1(NC(=O)c2ccc(-c3ccc(O)cc3C)c(-c3ccc(Cl)c(OCCCN(C)C)c3)n2)CCCCC1` [Compound 2, methyl 1-({[6-{4-chloro-3-[3-(dimethylamino)propoxy]phenyl}-5-(4-hydroxy-2-methylphenyl)pyridin-2-yl]carbonyl}amino)cyclohexanecarboxylate] displayed an IC50 on human GPR14 receptor of 1700 nM.

In turn, `COC(=O)C1(NC(=O)c2ccc(-c3ccc(O)cc3C)c(-c3ccc(Cl)c(OCCCN(C)C)c3)n2)CCCCC1` (as salt: hydrochloride) [Compound 2, methyl 1-({[6-{4-chloro-3-[3-(dimethylamino)propoxy]phenyl}-5-(4-hydroxy-2-methylphenyl)pyridin-2-yl]carbonyl}amino)cyclohexanecarboxylate] returned a melting point of 270 °C.

`COC(=O)C1(NC(=O)c2ccc(-c3ccccc3Cl)c(-c3ccc(Cl)c(OCCCN(C)C)c3)n2)C2CC3CC(C2)CC1C3` (stereo not drawn) [Compound 26, methyl 2-({[6-{4-chloro-3-[3-(dimethylamino)propoxy]phenyl}-5-(2-chlorophenyl)pyridin-2-yl]carbonyl}amino)adamantane-2-carboxylate] displayed an IC50 at human GPR14 receptor of 170 nM.

`COC(=O)C1(NC(=O)c2ccc(-c3ccccc3Cl)c(-c3ccc(Cl)c(OCCCN(C)C)c3)n2)C2CC3CC(C2)CC1C3` (stereo not drawn) (as salt: hydrochloride) [Compound 26, methyl 2-({[6-{4-chloro-3-[3-(dimethylamino)propoxy]phenyl}-5-(2-chlorophenyl)pyridin-2-yl]carbonyl}amino)adamantane-2-carboxylate] came in with a melting point of 135 °C.

In turn, `COC(=O)C1(NC(=O)c2ccc(-c3ncc(C)cc3C)c(-c3ccc(Cl)c(OCCCN(C)C)c3)n2)CCCCC1` (as salt: hydrochloride) [Compound 13, methyl 1-{[(2′-{4-chloro-3-[3-(dimethylamino)propoxy]phenyl}-3,5-dimethyl-2,3′-bipyridin-6′-yl)carbonyl]amino}cyclohexanecarboxylate] returned a melting point of 176 °C.

`COC(=O)C1(NC(=O)c2ccc(-n3nc(C)cc3C)c(-c3ccc(Cl)c(OCCCN(C)C)c3)n2)CCCCC1` (as salt: hydrochloride) [Compound 18, methyl 1-({[6-{4-chloro-3-[3-(dimethylamino)propoxy]phenyl}-5-(3,5-dimethyl-1H-pyrazol-1-yl)pyridin-2-yl]carbonyl}amino)cyclohexanecarboxylate]: the melting point is 158 °C.

Compound `Cc1ccccc1-c1ccc(C(=O)N[C@@H](CCO)C(C)(C)C)nc1-c1ccc(Cl)c(OCCCN(C)C)c1` (as salt: hydrochloride) came in with a melting point of 93 °C.

With `COC(=O)C1(NC(=O)c2ccc(-c3ncc(C)cc3Cl)c(-c3ccc(Cl)c(OCCCN(C)C)c3)n2)CCCCC1` [Compound 5, methyl 1-{[(3-chloro-2′-{4-chloro-3-[3-(dimethylamino)propoxy]phenyl}-5-methyl-2,3′-bipyridin-6′-yl)carbonyl]amino}cyclohexanecarboxylate], at human GPR14 receptor, the IC50 is 540 nM.

`CCOc1ccc(Cl)c(-c2ncc(C(=O)N[C@@H](CC(=O)OC)C(C)(C)C)nc2-c2ccc(Cl)c(OCCCN(C)C)c2)c1` [Compound 24, methyl(3S)-3-({[6-{4-chloro-3-[3-(dimethylamino)propoxy]phenyl}-5-(2-chloro-5-ethoxyphenyl)pyrazin-2-yl]carbonyl}amino)-4,4-dimethylpentanoate]: the IC50 against human GPR14 receptor turned out to be 102 nM. Compared with the last compound, the IC50 is about 5.3-fold lower.

On human GPR14 receptor, `COC(=O)C1(NC(=O)c2ccc(-c3cc(C4CC4)ccc3C)c(-c3ccc(Cl)c(OCCCN(C)C)c3)n2)CCCCC1` [Compound 7, methyl 1-({[6-{4-chloro-3-[3-(dimethylamino)propoxy]phenyl}-5-(5-cyclopropyl-2-methylphenyl)pyridin-2-yl]carbonyl}amino)cyclohexanecarboxylate] displayed an IC50 of 330 nM. Against the preceding compound, the IC50 is about 3.2-fold higher.

Turning to `CCOC(=O)C[C@H](NC(=O)c1ccc(-c2ccccc2C)c(-c2ccc(Cl)c(OCCCN(C)C)c2)n1)C(C)(C)C` [Compound 29, ethyl(3S)-3-({[6-{4-chloro-3-[3-(dimethylamino)propoxy]phenyl}-5-(2-methylphenyl)pyridin-2-yl]carbonyl}amino)-4,4-dimethylpentanoate], it took 253 nM to reach half-maximal inhibition at human GPR14 receptor (IC50).

On to `COC(=O)C1(NC(=O)c2ccc(-c3cc4c(cc3C)OCO4)c(-c3ccc(Cl)c(OCCCN(C)C)c3)n2)CCCCC1` [Compound 11, methyl 1-({[6-{4-chloro-3-[3-(dimethylamino)propoxy]phenyl}-5-(6-methyl-1,3-benzodioxol-5-yl)pyridin-2-yl]carbonyl}amino)cyclohexanecarboxylate], for which the IC50 against human GPR14 receptor was 566 nM.

`COC(=O)C1(NC(=O)c2ccc(-c3ccccc3C)c(-c3ccc(Cl)c(OCCCN(C)C)c3)n2)CCCCC1` [Compound 4, methyl 1-({[6-{4-chloro-3-[3-(dimethylamino)propoxy]phenyl}-5-(2-methylphenyl)pyridin-2-yl]carbonyl}amino)cyclohexanecarboxylate] displayed an IC50 against human GPR14 receptor of 630 nM.

At human GPR14 receptor, `COC(=O)C1(NC(=O)c2cnc(-c3ccc(C)cc3C)c(-c3ccc(Cl)c(OCCCN(C)C)c3)n2)CCCCC1` [Compound 20, methyl 1-({[6-{4-chloro-3-[3-(dimethylamino)propoxy]phenyl}-5-(2,4-dimethylphenyl)pyrazin-2-yl]carbonyl}amino)cyclohexanecarboxylate] yielded an IC50 of 116 nM.

In the case of `COC(=O)C1(NC(=O)c2ccc(-n3nc(C)cc3C)c(-c3ccc(Cl)c(OCCCN(C)C)c3)n2)CCCCC1` [Compound 18, methyl 1-({[6-{4-chloro-3-[3-(dimethylamino)propoxy]phenyl}-5-(3,5-dimethyl-1H-pyrazol-1-yl)pyridin-2-yl]carbonyl}amino)cyclohexanecarboxylate], at human GPR14 receptor, inhibition was half-maximal at 1080 nM (IC50).

`COC(=O)[C@]1(NC(=O)c2ccc(-c3ccccc3C)c(-c3ccc(Cl)c(OCCCN(C)C)c3)n2)CC[C@@H](O)CC1` [Compound 42, methyl cis-1-({[6-{4-chloro-3-[3-(dimethylamino)propoxy]phenyl}-5-(2-methylphenyl)pyridin-2-yl]carbonyl}amino)-4-hydroxycyclohexanecarboxylate]: it took 95 nM to reach half-maximal inhibition against human GPR14 receptor (IC50).

As to `COC(=O)[C@]1(NC(=O)c2ccc(-c3ncc(C)cc3Cl)c(-c3ccc(Cl)c(OCCCN(C)C)c3)n2)CC[C@@H](O)CC1` [Compound 44, methyl cis-1-{[(3-chloro-2′-{4-chloro-3-[3-(dimethylamino)propoxy]phenyl}-5-methyl-2,3′-bipyridin-6′-yl)carbonyl]amino}-4-hydroxycyclohexanecarboxylate], on human GPR14 receptor, the IC50 came to 660 nM.

`COC(=O)C1(NC(=O)c2ccc(-c3ncc(C)cc3C)c(-c3ccc(Cl)c(OCCCN(C)C)c3)n2)CCCCC1` [Compound 13, methyl 1-{[(2′-{4-chloro-3-[3-(dimethylamino)propoxy]phenyl}-3,5-dimethyl-2,3′-bipyridin-6′-yl)carbonyl]amino}cyclohexanecarboxylate] yielded an IC50 on human GPR14 receptor of 846 nM.

As to `CCCOc1ccc(Cl)c(-c2ccc(C(=O)NC3(C(=O)OC)CCCCC3)nc2-c2ccc(Cl)c(OCCCN(C)C)c2)c1` [Compound 9, methyl 1-({[6-{4-chloro-3-[3-(dimethylamino)propoxy]phenyl}-5-(2-chloro-5-propoxyphenyl)pyridin-2-yl]carbonyl}amino)cyclohexanecarboxylate], the IC50 at human GPR14 receptor was determined as 1400 nM. Compared with the last compound, the IC50 is about 1.7-fold higher.

In the case of `COC(=O)C1(NC(=O)c2ccc(-c3ncc(Cl)cc3Cl)c(-c3ccc(Cl)c(OCCCN(C)C)c3)n2)CCCCC1` [Compound 1, methyl 1-{[(3,5-dichloro-2′-{4-chloro-3-[3-(dimethylamino)propoxy]phenyl}-2,3′-bipyridin-6′-yl)carbonyl]amino}cyclohexanecarboxylate], it took 1600 nM to reach half-maximal inhibition at human GPR14 receptor (IC50).

For the origin of these results see patent US8653276B2 (SANOFI, priority 2008, dated 2014).
